{"source": "patent US7824680B2", "about": "“Methods for inhibiting angiogenesis” (The Regents of the University of California, priority 2001, dated 2010)", "system": "mice", "assay": "Murine bFGF matrigel plug angiogenesis, lectin-FITC fluorescence", "type": "in vivo", "conditions": "bFGF matrigel s.c. containing 25 μg/ml antibody or 1 mM peptide; 72 hours", "protocol": "Angiogenesis was induced by subcutaneous injection of 400 μl of growth factor depleted matrigel supplemented 0.4 μg/ml bFGF and saline, 25 μg/ml function blocking anti-α4β1 antibodies or control antibodies. Alternatively, mice were injected with matrigel containing bFGF and 1 mM of the sequence EILDVPST (SEQ ID NO:52) or the control sequence EILEVPST (SEQ ID NO:53). After 72 hours, mice were injected with Bandiera Simplicifolia lectin-FITC conjugate. After 15 minutes, matrigel plugs were excised and homogenized. Fluorescence intensity within the lysed plug was determined and correlated with degree of angiogenesis as determined by standard immunohistochemical analyses.", "data": [{"sequence": "EILDVPST [peptide antagonist of integrin α4β1]", "values": [{"measurement": "growth factor-stimulated angiogenesis (fluorescence intensity within the lysed matrigel plug)", "value": "selectively and specifically inhibited"}]}]}
